Tested on: FLAP (5-lipoxygenase activating protein)
Test: In vitro binding test: displacement of [3H]-7-chloro-3-(5-((3-fluoropyridin-2-yl)methoxy)-2-methylphenyl)-3,4-dihydroquinazolin-2(1H)-one from Sf9 microsome fractions
Set-up: species or system human and mouse
Settings: Sf9 microsome fractions expressing FLAP; 100% = radioligand binding with 10 μM sodium 3-(3-(tert-butylsulfanyl)-1-(4-chlorobenzyl)-5-isopropyl-1H-indol-2-yl)-2,2-dimethylpropanoate, 0% = DMSO; test compound concentration not given
Procedure, shortened: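 Sf9 microsomes expressing human or mouse FLAP (2 μg/mL) preincubated with compound 10 min at room temperature, then 120 nM tritiated quinazolinone ligand added for 60 min; buffer 100 mM Tris-HCl pH 7.5 with NaCl, EDTA, DTT, glycerol, Tween20. Bound ligand filtered and counted by scintillation; 10 μM indole propanoate defines 100% inhibition, DMSO 0%.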

Structure (SMILES)	inhibitory rate (%)
O=C1Nc2c(-c3ccoc3)ncc(Cl)c2CN1c1cc2c(cc1Cl)CCC(c1ncccc1F)O2 (centres unmarked) [Example 155, 5-chloro-3-(6-chloro-2-(3-fluoropyridin-2-yl)-3,4-dihydro-2H-chromen-7-yl)-8-(3-furyl)-3,4-dihydropyrido[3,4-d]pyrimidin-2(1H)-one]	101
O=C1OCCN1c1cc2c(c(C3CC3)n1)CN(c1cc3c(cc1Cl)CCC(c1ncccc1F)O3)C(=O)N2 (centres unmarked) [Example 113, 3-(6-chloro-2-(3-fluoropyridin-2-yl)-3,4-dihydro-2H-chromen-7-yl)-5-cyclopropyl-7-(2-oxo-1,3-oxazolidin-3-yl)-3,4-dihydropyrido[4,3-d]pyrimidin-2(1H)-one]	114
Cc1ccc(OCc2ccccc2Cl)cc1N1Cc2ccccc2NC1=O [Example 173, 3-(5-((2-chlorobenzyl)oxy)-2-methylphenyl)-3,4-dihydroquinazolin-2(1H)-one]	70
CCc1ccc(OCc2ncccc2F)cc1N1Cc2ccccc2NC1=O [Example 220, 3-(2-ethyl-5-((3-fluoropyridin-2-yl)methoxy)phenyl)-3,4-dihydroquinazolin-2(1H)-one]	106
O=C1Nc2c(Cl)cnc(C3CC3)c2CN1c1cc2c(cc1Cl)CCC(c1ncccc1F)O2 (centres unmarked) [Example 65, 8-chloro-3-(6-chloro-2-(3-fluoropyridin-2-yl)-3,4-dihydro-2H-chromen-7-yl)-5-cyclopropyl-3,4-dihydropyrido[4,3-d]pyrimidin-2(1H)-one]	105
COC(=O)c1ccc2c(c1)NC(=O)N(c1cc(OCc3c(F)cccc3F)ccc1C)C2 [Example 171, methyl 3-(5-((2,6-difluorobenzyl)oxy)-2-methylphenyl)-2-oxo-1,2,3,4-tetrahydroquinazoline-7-carboxylate]	99
Cc1cc2c(cc1N1Cc3c(Cl)ccnc3NC1=O)OC(c1ncccc1F)CC2 (centres unmarked) [Example 36, 5-chloro-3-(2-(3-fluoropyridin-2-yl)-6-methyl-3,4-dihydro-2H-chromen-7-yl)-3,4-dihydropyrido[2,3-d]pyrimidin-2(1H)-one]	115
Cc1ccc(OCc2c(F)cccc2F)cc1N1Cc2nn(C)cc2NC1=O [Example 236, 6-(5-((2,6-difluorobenzyl)oxy)-2-methylphenyl)-2-methyl-2,4,6,7-tetrahydro-5H-pyrazolo[4,3-d]pyrimidin-5-one]	65
Cc1cc2c(cc1N1Cc3c(Cl)cnc(-c4c(C)noc4C)c3NC1=O)OC(c1ncccc1F)CC2 (centres unmarked) [Example 10, 5-chloro-8-(3,5-dimethyl-1,2-oxazol-4-yl)-3-(2-(3-fluoropyridin-2-yl)-6-methyl-3,4-dihydro-2H-chromen-7-yl)-3,4-dihydropyrido[3,4-d]pyrimidin-2(1H)-one]	94
Cc1cc2c(cc1N1Cc3c(cc(OCC(F)F)nc3C3CC3)NC1=O)OC(c1ncccc1F)CC2 (centres unmarked) [Example 159, 5-cyclopropyl-7-(2,2-difluoroethoxy)-3-(2-(3-fluoropyridin-2-yl)-6-methyl-3,4-dihydro-2H-chromen-7-yl)-3,4-dihydropyrido[4,3-d]pyrimidin-2(1H)-one]	97
Cc1cc2c(cc1N1Cc3c(cc(C4CN(C(=O)n5ccnc5)C4)nc3C3CC3)NC1=O)OC(c1ncccc1F)CC2 (centres unmarked) [Example 49, 5-cyclopropyl-3-(2-(3-fluoropyridin-2-yl)-6-methyl-3,4-dihydro-2H-chromen-7-yl)-7-(1-(1H-imidazol-1-ylcarbonyl)azetidin-3-yl)-3,4-dihydropyrido[4,3-d]pyrimidin-2(1H)-one]	120
Cc1cc2c(c(C3CC3)n1)CN(c1cc3c(cc1C)CCC(c1ncccc1F)O3)C(=O)N2 (centres unmarked) [Example 83, 5-cyclopropyl-3-(2-(3-fluoropyridin-2-yl)-6-methyl-3,4-dihydro-2H-chromen-7-yl)-7-methyl-3,4-dihydropyrido[4,3-d]pyrimidin-2(1H)-one]	96
O=C1Nc2ccccc2CN1c1cc(OCc2ncccc2F)ccc1C1CC1 [Example 213, 3-(2-cyclopropyl-5-((3-fluoropyridin-2-yl)methoxy)phenyl)-3,4-dihydroquinazolin-2(1H)-one]	114
Cc1ccc(OCc2c(F)cccc2F)cc1N1Cc2ccc(C(N)=O)cc2NC1=O [Example 196, 3-(5-((2,6-difluorobenzyl)oxy)-2-methylphenyl)-2-oxo-1,2,3,4-tetrahydroquinazoline-7-carboxamide]	97
Cc1cc2c(cc1N1Cc3cnc(Cl)cc3NC1=O)OC(c1ncccc1F)CC2 (centres unmarked) [Example 47, 7-chloro-3-(2-(3-fluoropyridin-2-yl)-6-methyl-3,4-dihydro-2H-chromen-7-yl)-3,4-dihydropyrido[4,3-d]pyrimidin-2(1H)-one]	114
CCc1nccc2c1CN(c1cc3c(cc1C)CCC(c1ncccc1F)O3)C(=O)N2 (centres unmarked) [Example 27, 5-ethyl-3-(2-(3-fluoropyridin-2-yl)-6-methyl-3,4-dihydro-2H-chromen-7-yl)-3,4-dihydropyrido[4,3-d]pyrimidin-2(1H)-one]	82
Cc1cc2c(cc1N1Cc3c(Cl)cnc(-c4ccnn4C)c3NC1=O)OC(c1ncccc1F)CC2 (centres unmarked) [Example 160, 5-chloro-3-(2-(3-fluoropyridin-2-yl)-6-methyl-3,4-dihydro-2H-chromen-7-yl)-8-(1-methyl-1H-pyrazol-5-yl)-3,4-dihydropyrido[3,4-d]pyrimidin-2(1H)-one]	93
Cc1ccc(OCc2c(F)cc(Cl)cc2F)cc1N1Cc2ccccc2NC1=O [Example 174, 3-(5-((4-chloro-2,6-difluorobenzyl)oxy)-2-methylphenyl)-3,4-dihydroquinazolin-2(1H)-one]	54
Cc1cc2c(cc1N1Cc3c(Cl)cnc(C4CC4)c3NC1=O)OC(c1ncccc1F)CC2 (centres unmarked) [Example 142, 5-chloro-8-cyclopropyl-3-(2-(3-fluoropyridin-2-yl)-6-methyl-3,4-dihydro-2H-chromen-7-yl)-3,4-dihydropyrido[3,4-d]pyrimidin-2(1H)-one]	102
O=C(c1cc2c(c(C3CC3)n1)CN(c1cc3c(cc1Cl)CCC(c1ncccc1F)O3)C(=O)N2)N1CCOCC1 (centres unmarked) [Example 74, 3-(6-chloro-2-(3-fluoropyridin-2-yl)-3,4-dihydro-2H-chromen-7-yl)-5-cyclopropyl-7-(morpholin-4-ylcarbonyl)-3,4-dihydropyrido[4,3-d]pyrimidin-2(1H)-one]	104
COC(=O)c1ccc2c(c1)NC(=O)N(c1cc(OCc3ncccc3F)ccc1C)C2 [Example 216, methyl 3-(5-((3-fluoropyridin-2-yl)methoxy)-2-methylphenyl)-2-oxo-1,2,3,4-tetrahydroquinazoline-7-carboxylate]	104

The remaining lines, values ahead:

inhibitory rate (%)	Structure (SMILES)
95	O=c1[nH]c2ccccc2c(=O)n1-c1cc2c(cc1Cl)CCC(c1ncccc1F)O2 (centres unmarked) [Example 372, 3-(6-chloro-2-(3-fluoropyridin-2-yl)-3,4-dihydro-2H-chromen-7-yl)quinazoline-2,4(1H,3H)-dione]
100	COc1nccc2c1CN(c1cc(OCc3ncccc3F)ccc1C)C(=O)N2 [Example 307, 3-(5-((3-fluoropyridin-2-yl)methoxy)-2-methylphenyl)-5-methoxy-3,4-dihydropyrido[4,3-d]pyrimidin-2(1H)-one]
110	Cc1ccc(OCc2ncccc2F)cc1-n1c(=O)[nH]c2cc(NS(=O)(=O)C3CC3)ccc2c1=O [Example 362, N-(3-(5-((3-fluoropyridin-2-yl)methoxy)-2-methylphenyl)-2,4-dioxo-1,2,3,4-tetrahydroquinazolin-7-yl)cyclopropanesulfonamide]
113	Cc1ccc(OCc2ncccc2F)cc1N1Cc2ccc(Cl)cc2NC1=O [Example 244, 7-chloro-3-(5-((3-fluoropyridin-2-yl)methoxy)-2-methylphenyl)-3,4-dihydroquinazolin-2(1H)-one]
58	CCCN1CCN(Cc2ccc(OCc3ncccc3F)cc2N2Cc3ccccc3NC2=O)CC1 [Example 314, 3-(5-((3-fluoropyridin-2-yl)methoxy)-2-((4-propylpiperazin-1-yl)methyl)phenyl)-3,4-dihydroquinazolin-2(1H)-one]
93	Cc1ccc(OCc2c(F)cccc2F)cc1-n1c(=O)[nH]c2nc(N3CCOCC3)sc2c1=O [Example 334, 6-(5-((2,6-difluorobenzyl)oxy)-2-methylphenyl)-2-(morpholin-4-yl)[1,3]thiazolo[4,5-d]pyrimidine-5,7(4H,6H)-dione]
97	Cc1ccc(OCc2ncccc2F)cc1-n1c(=O)[nH]c2cccc(F)c2c1=O [Example 359, 5-fluoro-3-(5-((3-fluoropyridin-2-yl)methoxy)-2-methylphenyl)quinazoline-2,4(1H,3H)-dione]
101	Cc1ccc(OCc2ncccc2F)cc1-n1c(=O)[nH]c2cnc(Cl)cc2c1=O [Example 342, 6-chloro-3-(5-((3-fluoropyridin-2-yl)methoxy)-2-methylphenyl)pyrido[3,4-d]pyrimidine-2,4(1H,3H)-dione]
68	O=C(O)CCCCc1ccc(OCc2ncccc2F)cc1N1Cc2ccccc2NC1=O [Example 251, 5-(4-((3-fluoropyridin-2-yl)methoxy)-2-(2-oxo-1,4-dihydroquinazolin-3(2H)-yl)phenyl)pentanoic acid]
114	O=c1[nH]c2ccccc2c(=O)n1-c1cc(OCc2ncccc2F)ccc1F [Example 345, 3-(2-fluoro-5-((3-fluoropyridin-2-yl)methoxy)phenyl)quinazoline-2,4(1H,3H)-dione]
104	O=C1Nc2cc(Br)ccc2CN1c1cc(OCc2ncccc2F)ccc1C(F)(F)F [Example 301, 7-bromo-3-(5-((3-fluoropyridin-2-yl)methoxy)-2-(trifluoromethyl)phenyl)-3,4-dihydroquinazolin-2(1H)-one]
